US8288371B2, “Ortho pyrrolidine, benzyl-substituted heterocycle CCR1 antagonists for autoimmune diseases and inflammation” (Pharmacopeia, LLC, priority 2007, dated 2012)

Molecular target: T1, human CCR1 (Homo sapiens, UniProt P32246)
T1 sequence (P32246 1-355): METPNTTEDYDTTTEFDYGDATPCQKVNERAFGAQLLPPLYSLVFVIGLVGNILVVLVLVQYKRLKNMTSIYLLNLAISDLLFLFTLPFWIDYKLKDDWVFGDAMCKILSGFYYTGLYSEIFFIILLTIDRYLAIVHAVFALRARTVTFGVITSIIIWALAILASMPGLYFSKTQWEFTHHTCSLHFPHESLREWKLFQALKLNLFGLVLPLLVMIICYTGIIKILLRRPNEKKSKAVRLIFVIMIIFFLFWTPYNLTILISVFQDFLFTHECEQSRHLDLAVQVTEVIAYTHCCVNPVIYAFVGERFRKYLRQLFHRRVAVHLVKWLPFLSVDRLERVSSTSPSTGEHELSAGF
Assay: CCR1 binding protocol (SPA, [125I]-MIP-1α displacement)
Settings: cell membrane expressing human CCR1, 0.1 nM [125I]-MIP-1α, 4 hours at ambient temperature; read-out: Relative potency (IC50)
How it was run: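 Human CCR1 membranes (0.5 μg/well) on SPA beads were incubated with compound and 0.1 nM [125I]-MIP-1α (final) for 4 h at ambient temperature. Buffer was Tris pH 7.4 with NaCl, KCl, MnCl and 0.1% BSA. IC50 came from ½-log compound dilutions (10 mM top DMSO stock) by displacement of bound radioligand.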

IC50 | SMILES
< 50 nM | Cc1nnc([C@H]2CCCN2C(=O)Nc2cc(C(=O)N(C)C)ccc2Cl)n1Cc1ccc(Cl)cc1 [Compound 347]
< 50 nM | Cc1ncncc1NC(=O)N1CCC[C@@H]1c1nnc(C)n1Cc1ccc(Cl)cc1 [Compound 348]
50 to 500 nM | Cc1nnc([C@H]2CCCN2C(=O)Nc2ccc(Cl)cc2F)n1[C@H](C)c1ccc(Cl)cc1 [Compound 349]
< 50 nM | Cc1nc(Cl)ncc1NC(=O)N1CCC[C@@H]1c1nnc(C)n1Cc1ccc(Cl)cc1 [Compound 350]
50 to 500 nM | Cc1nnc([C@H]2CCCN2C(=O)NC2(c3ccccc3)CC2)n1[C@@H](C)c1ccc(Cl)cc1 [Compound 351]
50 to 500 nM | Cc1nnc([C@H]2CCCN2C(=O)Nc2ccc3c(c2)N(C)C(=O)CO3)n1[C@H](C)c1ccc(Cl)cc1 [Compound 352]
50 to 500 nM | Cc1nnc([C@H]2CCCN2C(=O)N[C@H]2CCOc3cc(C(F)(F)F)ccc32)n1[C@H](C)c1ccc(Cl)cc1 [Compound 353]
500 to 5000 nM | Cc1nnc([C@H]2CCCN2C(=O)Nc2cccc(S(N)(=O)=O)c2)n1Cc1ccc(Cl)cc1 [Compound 354]
500 to 5000 nM | Cc1nnc([C@H]2CCCN2C(=O)Nc2ccc(S(N)(=O)=O)cc2)n1Cc1ccc(Cl)cc1 [Compound 355]
< 50 nM | Cc1nnc([C@H]2CCCN2C(=O)Nc2cc(-c3ccccc3)nn2C)n1Cc1ccc(Cl)cc1 [Compound 356]
50 to 500 nM | Cc1nnc([C@H]2CCCN2C(=O)NC2(c3ccccc3)CC2)n1[C@H](C)c1ccc(Cl)cc1 [Compound 357]
50 to 500 nM | Cc1nnc([C@H]2CCCN2C(=O)Nc2cc(C(N)=O)ccc2C(F)(F)F)n1Cc1ccc(Cl)cc1 [Compound 358]
< 50 nM | CNC(=O)c1ccc(C(F)(F)F)c(NC(=O)N2CCC[C@@H]2c2nnc(C)n2Cc2ccc(Cl)cc2)c1 [Compound 359]
50 to 500 nM | CNC(=O)c1ccc(C)c(N/C(=N/C#N)N2CCC[C@@H]2c2nnc(C)n2Cc2ccc(Cl)cc2)c1 [Compound 360]
< 50 nM | Cc1cc(C)c(S(C)(=O)=O)cc1NC(=O)N1CCC[C@@H]1c1nnc(C)n1Cc1ccc(Cl)cc1 [Compound 361]
< 50 nM | Cc1ccc(NC(=O)N2CCC[C@@H]2c2nnc(C)n2Cc2ccc(Cl)cc2)c(C)n1 [Compound 362]
50 to 500 nM | Cc1cc(C)c(C(N)=O)cc1NC(=O)N1CCC[C@@H]1c1nnc(C)n1Cc1ccc(Cl)cc1 [Compound 363]
500 to 5000 nM | Cc1nnc([C@H]2CCCN2C(=O)Nc2ccc(Cl)cc2F)n1Cc1ccc(Cl)nc1 [Compound 364]
50 to 500 nM | Cc1noc(C)c1NC(=O)N1CCC[C@@H]1c1nnc(C)n1[C@H](C)c1ccc(Cl)cc1 [Compound 365]
50 to 500 nM | Cc1nnc([C@H]2CCCN2C(=O)Nc2ccc(Cl)cc2F)n1Cc1ccc(F)cc1 [Compound 367]
< 50 nM | Cc1nnc([C@H]2CCCN2C(=O)N[C@@H]2CCS(=O)(=O)c3ccc(Cl)cc32)n1Cc1ccc(Cl)cc1 [Compound 368]
< 50 nM | Cc1nnc([C@H]2CCCN2C(=O)N[C@H]2CCS(=O)(=O)c3ccc(Cl)cc32)n1Cc1ccc(Cl)cc1 [Compound 369]

IC50 | SMILES
< 50 nM | O=C(N[C@@H]1CCS(=O)(=O)c2ccc(Cl)cc21)N1CCC[C@@H]1c1nnc(CO)n1Cc1ccc(Cl)cc1 [Compound 370]
50 to 500 nM | O=C(N[C@H]1CCS(=O)(=O)c2ccc(Cl)cc21)N1CCC[C@@H]1c1nnc(CO)n1Cc1ccc(Cl)cc1 [Compound 371]
500 to 5000 nM | N#C/N=C(\Nc1ccc(C(F)(F)F)cc1)N1CCC[C@@H]1c1nnc(CO)n1Cc1ccc(Cl)cc1 [Compound 372]
50 to 500 nM | N#C/N=C(\N[C@H]1CCOc2cc(C(F)(F)F)ccc21)N1CCC[C@@H]1c1nnc(CO)n1Cc1ccc(Cl)cc1 [Compound 373]
500 to 5000 nM | N#C/N=C(\NC1(c2ccccc2)CC1)N1CCC[C@@H]1c1nnc(CO)n1Cc1ccc(Cl)cc1 [Compound 374]
50 to 500 nM | Cc1cc(C)c(C(=O)N(C)C)cc1NC(=O)N1CCC[C@@H]1c1nnc(C)n1Cc1ccc(Cl)cc1 [Compound 375]
50 to 500 nM | Cc1nnc([C@H]2CCCN2C(=O)Nc2cc(S(C)(=O)=O)ccc2F)n1Cc1ccc(Cl)cc1 [Compound 376]
50 to 500 nM | Cc1nnc([C@H]2CCCN2/C(=N/C#N)NCc2ccc(C(F)(F)F)cc2)n1Cc1ccc(Cl)cc1 [Compound 377]
50 to 500 nM | Cc1nnc([C@H]2CCCN2C(=O)Nc2ccccc2S(C)(=O)=O)n1Cc1ccc(Cl)cc1 [Compound 378]
50 to 500 nM | Cc1nnc([C@H]2CCCN2C(=O)Nc2cc(C(=O)N(C)C)ccc2C(F)(F)F)n1Cc1ccc(Cl)cc1 [Compound 379]
< 50 nM | CNC(=O)c1cc(NC(=O)N2CCC[C@@H]2c2nnc(C)n2Cc2ccc(Cl)cc2)c(C)cc1C [Compound 380]
500 to 5000 nM | Cc1nnc([C@H]2CCCN2C(=O)Nc2ccc3c(c2)N(C)C(=O)CO3)n1Cc1ccc(Cl)nc1 [Compound 381]
50 to 500 nM | Cc1nnc([C@H]2CCCN2C(=O)N[C@H]2CCOc3cc(C(F)(F)F)ccc32)n1Cc1ccc(Cl)nc1 [Compound 382]
50 to 500 nM | Cc1nnc([C@H]2CCCN2C(=O)NC2(c3ccccc3)CC2)n1Cc1ccc(Cl)nc1 [Compound 383]
50 to 500 nM | Cc1nnc([C@H]2CCCN2C(=O)Nc2ccc(Cl)cc2F)n1Cc1ccc(Cl)c(Cl)c1 [Compound 384]
50 to 500 nM | Cc1noc(C)c1NC(=O)N1CCC[C@@H]1c1nnc(C)n1Cc1ccc(F)cc1 [Compound 385]
50 to 500 nM | Cc1nnc([C@H]2CCCN2C(=O)Nc2ccc3c(c2)N(C)C(=O)CO3)n1Cc1ccc(F)cc1 [Compound 386]
< 50 nM | Cc1nnc([C@H]2C[C@@H](O)CN2C(=O)NC2(c3ccc(C(F)(F)F)cc3)CC2)n1Cc1ccc(Cl)cc1 [Compound 387]
50 to 500 nM | Cc1nnc([C@H]2C[C@H](O)CN2C(=O)Nc2ccc(C(F)(F)F)cc2)n1Cc1ccc(Cl)cc1 [Compound 388]
50 to 500 nM | Cc1nnc([C@H]2C[C@@H](O)CN2C(=O)NC(c2ccccc2)c2ccccc2)n1Cc1ccc(Cl)cc1 [Compound 389]
500 to 5000 nM | Cc1nnc([C@H]2C[C@@H](O)CN2C(=O)Nc2ccc(Cl)cc2F)n1Cc1ccc(Cl)cc1 [Compound 390]
500 to 5000 nM | Cc1nnc([C@H]2C[C@@H](O)CN2C(=O)Nc2ccc(C(F)(F)F)cc2)n1Cc1ccc(Cl)cc1 [Compound 391]

IC50 | SMILES
50 to 500 nM | Cc1onc(-c2ccccc2)c1NC(=O)N1C[C@H](O)C[C@@H]1c1nnc(C)n1Cc1ccc(Cl)cc1 [Compound 392]
< 50 nM | Cc1nnc([C@H]2C[C@@H](O)CN2C(=O)N[C@H]2CCOc3cc(C(F)(F)F)ccc32)n1Cc1ccc(Cl)cc1 [Compound 393]
50 to 500 nM | Cc1ccc(NC(=O)N2CCC[C@@H]2c2nnc(C)n2Cc2ccc(Cl)cc2)c(Cl)n1 [Compound 394]
< 50 nM | Cc1nnc([C@H]2CCCN2C(=O)Nc2ccc(Cl)nc2Cl)n1Cc1ccc(Cl)cc1 [Compound 395]
50 to 500 nM | Cc1nnc([C@H]2CCCN2C(=O)Nc2ccc(C#N)nc2)n1Cc1ccc(Cl)cc1 [Compound 396]
50 to 500 nM | Cc1nn(C)c(C)c1N/C(=N\C#N)N1CCC[C@@H]1c1nnc(C)n1Cc1ccc(Cl)cc1 [Compound 397]
< 50 nM | Cc1nc(Cl)ccc1NC(=O)N1CCC[C@@H]1c1nnc(C)n1Cc1ccc(Cl)cc1 [Compound 398]
50 to 500 nM | Cc1nnc([C@H]2CCCN2C(=O)NC2(c3ccccc3)CC2)n1Cc1ccc(F)cc1 [Compound 399]
500 to 5000 nM | Cc1noc(C)c1NC(=O)N1CCC[C@@H]1c1nnc(C)n1[C@@H](C)c1ccc(Cl)cc1 [Compound 400]
50 to 500 nM | C[C@@H](NC(=O)N1CCC[C@@H]1c1nnc(CO)n1Cc1ccc(Cl)cc1)c1ccc(Cl)cc1 [Compound 401]
< 50 nM | C[C@H](NC(=O)N1CCC[C@@H]1c1nnc(CO)n1Cc1ccc(Cl)cc1)c1ccc(Cl)cc1 [Compound 402]
50 to 500 nM | Cc1nnc([C@H]2CCCN2C(=O)N[C@@H]2c3ccccc3C[C@H]2O)n1Cc1ccc(Cl)cc1 [Compound 403]
< 50 nM | Cc1nc(C(F)(F)F)ccc1NC(=O)N1CCC[C@@H]1c1nnc(C)n1Cc1ccc(Cl)cc1 [Compound 404]
< 50 nM | Cc1nnc([C@H]2CCCN2C(=O)Nc2ccc(Cl)cc2C(F)(F)F)n1Cc1ccc(Cl)cc1 [Compound 405]
< 50 nM | Cc1ccc(S(C)(=O)=O)c(C)c1NC(=O)N1CCC[C@@H]1c1nnc(C)n1Cc1ccc(Cl)cc1 [Compound 406]
50 to 500 nM | CC[C@H](C)NC(=O)N1CCC[C@@H]1c1nnc(C)n1Cc1ccc(Cl)cc1 [Compound 407]
50 to 500 nM | Cc1nnc([C@H]2CCCN2C(=O)Nc2ccc(Cl)c(F)c2)n1Cc1ccc(Cl)cc1 [Compound 408]
< 50 nM | Cc1cc(Cl)ccc1NC(=O)N1CCC[C@@H]1c1nnc(C)n1Cc1ccc(Cl)cc1 [Compound 409]
50 to 500 nM | Cc1nnc([C@H]2CCCN2C(=O)N[C@H]2CCOc3cc(C(F)(F)F)ccc32)n1Cc1ccc(Cl)c(Cl)c1 [Compound 410]
< 50 nM | Cc1nnc([C@H]2CCCN2C(=O)N[C@H]2CCOc3cc(C(F)(F)F)ccc32)n1Cc1ccc(F)cc1 [Compound 411]
< 50 nM | Cc1nnc([C@H]2CCCN2C(=O)NC2(c3ccccc3)CC2)n1Cc1ccc(Cl)c(Cl)c1 [Compound 412]
50 to 500 nM | CNCc1nnc([C@H]2CCCN2C(=O)N[C@H]2CCOc3cc(C(F)(F)F)ccc32)n1Cc1ccc(Cl)cc1 [Compound 413]

SMILES | IC50
Cc1noc(C)c1NC(=O)N1CCC[C@@H]1c1nnc(C)n1Cc1ccc(Cl)nc1 [Compound 366] | 50 to 500 nM
